Laboratory results: patent US10562859B2, “Aryl sulfonamide compounds as carbonic anhydrase inhibitors and their therapeutic use” (SignalChem LifeSciences Corporation, priority 2015, dated 2020)

What was measured:
recombinant human CAXII = recombinant human CAXII (Homo sapiens, UniProt O43570); experiment: Stopped-flow CA-catalyzed CO2 hydration assay, CAXII; assay type: biochemical; conditions: pH 7.4, inhibitor and enzyme pre-incubated 15 minutes at room temperature
Protocol: (§1) An Applied Photophysics stopped-flow instrument was used for assaying the CA-catalyzed CO2 hydration activity. […] The CO2 concentrations ranged from 1.7 to 17 mM for the determination of the kinetic parameters and inhibition constants. For each inhibitor, at least six traces of the initial 5-10% of the reaction were used for determining the initial velocity. The uncatalyzed rates were determined in the same manner and subtracted from the total observed rates. Stock solutions of inhibitor (10 mM) were prepared in distilled-deionized water, and dilutions up to 0.01 nM were done thereafter with distilled-deionized water. Inhibitor and enzyme solutions were pre-incubated together for 15 minutes at room temperature prior to assay in order to allow for the formation of the E-I complex. The inhibition constants were obtained by nonlinear least-squares methods using PRISM 3, whereas the kinetic parameters for the uninhibited enzymes were from Lineweaver-Burk plots, and represent the mean from at least three different determinations.

recombinant human CAIX = recombinant human CAIX (Homo sapiens, UniProt Q16790); experiment: Stopped-flow CA-catalyzed CO2 hydration assay, CAIX; assay type: biochemical; conditions: pH 7.4, inhibitor and enzyme pre-incubated 15 minutes at room temperature
Protocol: as §1

recombinant human CAXII, sequence (O43570 25-354): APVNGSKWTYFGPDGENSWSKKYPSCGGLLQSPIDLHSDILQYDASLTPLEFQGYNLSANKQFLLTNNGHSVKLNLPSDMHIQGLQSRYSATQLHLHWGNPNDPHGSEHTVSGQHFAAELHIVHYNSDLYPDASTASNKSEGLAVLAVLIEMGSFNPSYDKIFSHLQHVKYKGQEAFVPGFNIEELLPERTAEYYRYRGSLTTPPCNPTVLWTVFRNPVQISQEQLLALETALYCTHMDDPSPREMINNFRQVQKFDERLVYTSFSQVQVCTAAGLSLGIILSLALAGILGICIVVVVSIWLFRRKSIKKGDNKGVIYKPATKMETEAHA

Row | SMILES | Ki (nM) CAXII (recombinant human CAXII) | Ki (nM) CAIX (recombinant human CAIX) | Ki (recombinant human CAIX) [nM] | Ki (recombinant human CAXII) [nM]
1 | NS(=O)(=O)c1ccc(N2CCN(c3cccc(F)c3)C2=O)cc1 [Example 1, 4-(3-(3-fluorophenyl)-2-oxoimidazolidin-1-yl)benzenesulfonamide] | ++ (“++” represents the 100 nM<Ki<10 nM) | ++ (“++” represents the 100 nM<Ki<10 nM) |  | 
2 | Cc1cc(C)cc(N2CCN(c3ccc(S(N)(=O)=O)cc3)C2=O)c1 [Example 2, 4-(3-(3,5-dimethylphenyl)-2-oxoimidazolidin-1-yl)benzenesulfonamide] | ++ (“++” represents the 100 nM<Ki<10 nM) | ++ (“++” represents the 100 nM<Ki<10 nM) |  | 
3 | COc1cc(N2CCN(c3ccc(S(N)(=O)=O)cc3)C2=O)cc(OC)c1OC [Example 3, 4-(2-oxo-3-(3,4,5-trimethoxyphenyl)imidazolidin-1-yl)benzenesulfonamide] | ++ (“++” represents the 100 nM<Ki<10 nM) |  | < 10 | 
4 | NS(=O)(=O)c1ccc(N2CCN(C3CCCC3)C2=O)cc1 [Example 4, 4-(3-cyclopentyl-2-oxoimidazolidin-1-yl)benzenesulfonamide] | ++ (“++” represents the 100 nM<Ki<10 nM) | ++ (“++” represents the 100 nM<Ki<10 nM) |  | 
5 | NS(=O)(=O)c1ccc(N2CCN(C3CCCCC3)C2=O)cc1 [Example 5, 4-(3-cyclohexyl-2-oxoimidazolidin-1-yl)benzenesulfonamide] | ++ (“++” represents the 100 nM<Ki<10 nM) | ++ (“++” represents the 100 nM<Ki<10 nM) |  | 
6 | NS(=O)(=O)c1ccc(N2CCN(c3ccc(Br)cc3F)C2=O)cc1 [Example 6, 4-(3-(4-bromo-2-fluorophenyl)-2-oxoimidazolidin-1-yl)benzenesulfonamide] | ++ (“++” represents the 100 nM<Ki<10 nM) | ++ (“++” represents the 100 nM<Ki<10 nM) |  | 
7 | NS(=O)(=O)c1ccc(N2CCN(c3ccc(Cl)cc3F)C2=O)cc1 [Example 7, 4-(3-(4-chloro-2-fluorophenyl)-2-oxoimidazolidin-1-yl)benzenesulfonamide] | ++ (“++” represents the 100 nM<Ki<10 nM) |  | < 10 | 
8 | NS(=O)(=O)c1ccc(N2CCN(c3ccc(C(F)(F)F)cc3)C2=O)cc1 [Example 8, 4-(2-oxo-3-(4-(trifluoromethyl)phenyl)imidazolidin-1-yl)benzenesulfonamide] |  |  | < 10 | < 10
9 | NS(=O)(=O)c1ccc(N2CCN(Cc3ccc(F)cc3)C2=O)cc1 [Example 9, 4-(3-(4-fluorobenzyl)-2-oxoimidazolidin-1-yl)benzenesulfonamide] | ++ (“++” represents the 100 nM<Ki<10 nM) | ++ (“++” represents the 100 nM<Ki<10 nM) |  | 
10 | NS(=O)(=O)c1ccc(N2CCN(CC3CC3)C2=O)cc1 [Example 10, 4-(3-(cyclopropylmethyl)-2-oxoimidazolidin-1-yl)benzenesulfonamide] |  |  | < 10 | < 10
11 | CC(C)c1ccccc1N1CCN(c2ccc(S(N)(=O)=O)cc2)C1=O [Example 11, 4-(3-(2-isopropylphenyl)-2-oxoimidazolidin-1-yl)benzenesulfonamide] |  |  | < 10 | < 10
12 | NS(=O)(=O)c1ccc(N2CCN(c3cc(C(F)(F)F)ccc3Cl)C2=O)cc1 [Example 12, 4-(3-(2-chloro-5-(trifluoromethyl)phenyl)-2-oxoimidazolidin-1-yl)benzenesulfonamide] |  |  | < 10 | < 10
13 | NS(=O)(=O)c1ccc(N2CCN(c3cc(C(F)(F)F)ccc3F)C2=O)cc1 [Example 13, 4-(3-(2-fluoro-5-(trifluoromethyl)phenyl)-2-oxoimidazolidin-1-yl)benzenesulfonamide] |  |  | < 10 | < 10
14 | COCCOc1ccc(N2CCN(c3ccc(S(N)(=O)=O)cc3)C2=O)cc1 [Example 14, 4-(3-(4-(2-methoxyethoxy)phenyl)-2-oxoimidazolidin-1-yl)benzenesulfonamide] |  |  | < 10 | < 10
15 | CCCCOc1ccc(N2CCN(c3ccc(S(N)(=O)=O)cc3)C2=O)cc1 [Example 15, 4-(3-(4-butoxyphenyl)-2-oxoimidazolidin-1-yl)benzenesulfonamide] | ++ (“++” represents the 100 nM<Ki<10 nM) |  | < 10 | 
16 | N#Cc1ccc(N2CCN(c3ccc(S(N)(=O)=O)cc3)C2=O)cc1 [Example 16, 4-(3-(4-cyanophenyl)-2-oxoimidazolidin-1-yl)benzenesulfonamide] |  |  | < 10 | < 10
17 | CC(=O)c1ccc(N2CCN(c3ccc(S(N)(=O)=O)cc3)C2=O)cc1 [Example 17, 4-(3-(4-acetylphenyl)-2-oxoimidazolidin-1-yl)benzenesulfonamide] |  |  | < 10 | < 10
18 | NS(=O)(=O)c1ccc(N2CCN(c3ccc(F)cc3)C2=O)cc1 [Example 21, 4-(3-(4-fluorophenyl)-2-oxoimidazolidin-1-yl)benzenesulfonamide] | ++ (“++” represents the 100 nM<Ki<10 nM) |  | < 10 | 
19 | NS(=O)(=O)c1ccc(N2CCN(c3ccc(F)c(Cl)c3)C2=O)cc1 [Example 22, 4-(3-(3-chloro-4-fluorophenyl)-2-oxoimidazolidin-1-yl)benzenesulfonamide] | ++ (“++” represents the 100 nM<Ki<10 nM) |  | < 10 | 
20 | NS(=O)(=O)c1ccc(N2CCN(c3cc(F)cc(F)c3)C2=O)cc1 [Example 23, 4-(3-(3,5-difluorophenyl)-2-oxoimidazolidin-1-yl)benzenesulfonamide] |  |  | < 10 | < 10
21 | NS(=O)(=O)c1ccc(N2CCN(c3ccc(F)c(F)c3)C2=O)cc1 [Example 24, 4-(3-(3,4-difluorophenyl)-2-oxoimidazolidin-1-yl)benzenesulfonamide] | ++ (“++” represents the 100 nM<Ki<10 nM) |  | < 10 | 
22 | COc1ccc(N2CCN(c3ccc(S(N)(=O)=O)cc3)C2=O)c(F)c1 [Example 25, 4-(3-(2-fluoro-4-methoxyphenyl)-2-oxoimidazolidin-1-yl)benzenesulfonamide] | ++ (“++” represents the 100 nM<Ki<10 nM) |  | < 10 | 
23 | CCCCOc1ccc(N2CCN(c3ccc(S(N)(=O)=O)cc3)C2=O)c(F)c1 [Example 26, 4-(3-(4-butoxy-2-fluorophenyl)-2-oxoimidazolidin-1-yl)benzenesulfonamide] | ++ (“++” represents the 100 nM<Ki<10 nM) |  | < 10 | 
24 | NS(=O)(=O)c1ccc(N2CCN(c3ccc(Cl)c(F)c3)C2=O)cc1 [Example 27, 4-(3-(4-chloro-3-fluorophenyl)-2-oxoimidazolidin-1-yl)benzenesulfonamide] | ++ (“++” represents the 100 nM<Ki<10 nM) |  | < 10 | 
25 | NS(=O)(=O)c1ccc(N2CCN(c3ccc(F)cn3)C2=O)cc1 [Example 28.1, 4-(3-(5-fluoropyridin-2-yl)-2-oxoimidazolidin-1-yl)benzenesulfonamide] |  |  | > 100000 | > 100000
26 | CN1CCN(c2ccc(N3CCN(c4ccc(S(N)(=O)=O)cc4)C3=O)c(F)c2)CC1 [Example 28.2, 4-(3-(2-fluoro-4-(4-methylpiperazin-1-yl)phenyl)-2-oxoimidazolidin-1-yl)benzenesulfonamide] |  |  | > 100000 | < 10
27 | NS(=O)(=O)c1ccc(N2CCN(c3ccc(N4CCOCC4)cc3F)C2=O)cc1 [Example 28.3, 4-(3-(2-fluoro-4-morpholinophenyl)-2-oxoimidazolidin-1-yl)benzenesulfonamide] |  |  | < 10 | < 10
